Calls of active or inactive are those of the source. No cut-off for these calls is given here.
Columns and labels:
A549 [1] = assay: Cytotoxicity against human A549 cells assessed as inhibition of cell growth; format: functional, cell-based
A549 [2] = assay: Induction of apoptosis in human A549 cells assessed as necrotic cells at 1.5 uM by Annexin V-FITC/PI staining based flow cytometric analysis (reference value: 0.46 %); format: functional
A549 [3] = assay: Induction of apoptosis in human A549 cells assessed as increase in necrotic cells by measuring red signals at 1.5 uM by acridine orange/EtBr staining based analysis; format: functional, cell-based
A549 [4] = assay: Cell cycle arrest in human A549 cells assessed as increase in G0/G1phase cell frequency at 1.5 uM by PI staining based flow cytometric analysis relative to control; format: functional
A549 [5] = assay: Induction of apoptosis in human A549 cells assessed as increase in late apoptotic cells by measuring orange red signals at 1.5 uM by acridine orange/EtBr staining based analysis; format: functional, cell-based
A549 [6] = assay: Induction of apoptosis in human A549 cells assessed as reduction in green intensity at 1.5 uM by acridine orange/EtBr staining based analysis; format: functional, cell-based
A549 [7] = assay: Induction of apoptosis in human A549 cells assessed as inhibition of Bcl-2 expression at 1.5 uM by PI staining based flow cytometric analysis relative to control; format: functional
A549 [8] = assay: Induction of apoptosis in human A549 cells assessed as late apoptotic cells at 1.5 uM by Annexin V-FITC/PI staining based flow cytometric analysis (reference value: 0.19 %); format: functional
A549 [9] = assay: Induction of apoptosis in human A549 cells assessed as early apoptotic cells at 1.5 uM by Annexin V-FITC/PI staining based flow cytometric analysis (reference value: 0.32 %); format: functional
A549 [10] = assay: Induction of ROS generation in human A549 cells assessed as fold change at 1.5 uM by DCFDA-H2 fluorescent dye based flow cytometric analysis relative to control; format: functional
A549 [11] = assay: Induction of apoptosis in human A549 cells assessed as increase in yellowish green intensity at 1.5 uM by acridine orange/EtBr staining based analysis; format: functional, cell-based

SMILES: CC1(C)CCC(CN2CCN(c3ccc(C(=O)NS(=O)(=O)c4ccc(NCC5CCOCC5)c([N+](=O)[O-])c4)c(Oc4cnc5[nH]ccc5c4)c3)CC2)=C(c2ccc(Cl)cc2)C1 [VENETOCLAX]
- IC50 (A549 [1]): 1500 nM
- Activity (A549 [2]): 5.5%
- Activity (A549 [3]): Active
- Activity (A549 [4]): 6.9%
- Activity (A549 [5]): Active
- Activity (A549 [6]): Active
- inhibition at 1.5 µM (A549 [7]): 61.7%
- Activity (A549 [8]): 4.9%
- Activity (A549 [9]): 1.5%
- fold change (FC) (A549 [10]): 9.53
- Activity (A549 [11]): Active
